Laboratory results: ChEMBL document CHEMBL5390201, “The Natural Alkaloid (-)-N-Hydroxyapiosporamide Suppresses Colorectal Tumor Progression as an NF-κB Pathway Inhibitor by Targeting the TAK1-TRAF6 Complex” (J Nat Prod, 2023)
The source made the active and inactive calls. The calls are words filed in the database; no cut-off is given here.

Assays:
[1] = tested on: Mus musculus; test: (§1) Anti-inflammatory activity in AOM/DSS-induced BALB/c mouse model inflammatory bowel disease assessed as reduction in body weight at 5 to 10 mg/kg, ip pretreated with AOM for 7 days further replaced with DSS for 7 days and repeated for 2 times followed by every 2 days compound treatment for […] starting from day 50 […]; type: functional, organism-based; details: dose 5-10 mg/kg, time 21.0 day
[2] = molecular target: T1, Nuclear factor NF-kappa-B complex (Homo sapiens) (UniProt Q00653+P19838+Q04206); test: Inhibition of NFkappaB activation in HEK293T cells transfected with HA-tagged p65 and kappaB luciferase/pTK-renilla reporters at 2 uM incubated for 6 hrs by Dual Luciferase Reporter Assay; type: cell-based; details: HEK-293T
[3] = tested on: HT-29; test: Induction of apoptosis in human HT-29 cells assessed as necrotic cells at 10 uM incubated for 24 hrs by Annexin V-FITC/PI staining based flow cytometric analysis (reference value: 0.14 %); type: functional
[4] = molecular target: T1, Nuclear factor NF-kappa-B complex (Homo sapiens); test: Inhibition of TNF-alpha induced NFkappaB activation in human HCT-116 cells assessed as inhibition of IL-8 production at 2 uM pretreated for 24 hrs followed by TNFalpha stimulation for 4 hrs by ELISA; type: cell-based; details: time 28.0 hrs
[5] = tested on: HCT-116; test: Induction of apoptosis in human HCT-116 cells assessed as necrotic cells at 5 uM incubated for 24 hrs by Annexin V-FITC/PI staining based flow cytometric analysis (reference value: 1.1 %); type: functional
[6] = tested on: HCT-116; test: Cytotoxicity against human HCT-116 cells assessed as inhibition of cell growth incubated for 24 hrs by SRB assay; type: functional, cell-based; details: HCT-116, 24 h
[7] = molecular target: T1, Nuclear factor NF-kappa-B complex (Homo sapiens); test: Inhibition of NFkappaB activation in HEK293T cells transfected with HA-tagged TAB2 and kappaB luciferase/pTK-renilla reporters at 2 uM incubated for 6 hrs by Dual Luciferase Reporter Assay; type: cell-based; details: HEK-293T
[8] = molecular target: T1, Nuclear factor NF-kappa-B complex (Homo sapiens); test: Inhibition of TNF-alpha induced NFkappaB activation in human HCT-116 cells assessed as downregulation of MCP-1 gene expression pretreated for 24 hrs followed by TNFalpha stimulation and measured after 2 hrs by quantitative RT-PCR analysis; type: cell-based; details: dose 1-10 µM, time 26.0 hrs
[9] = molecular target: T1, Nuclear factor NF-kappa-B complex (Homo sapiens); test: Inhibition of TNF-alpha induced NFkappaB activation in human HT-29 cells assessed as inhibition of IkappaBalpha degradation at 1 to 10 uM pretreated for 24 hrs followed by TNFalpha stimulation for 10 mins by Western blot analysis; type: cell-based; details: dose 1-10 µM, time 1450.0 min
[10] = tested on: HCT-116; test: Induction of apoptosis in human HCT-116 cells assessed as late apoptotic cells at 1 uM incubated for 24 hrs by Annexin V-FITC/PI staining based flow cytometric analysis (reference value: 2.9 %); type: functional
[11] = Toxicity in athymic nude BALB/c mouse xenografted with human HT-29 cells assessed as pathological changes in lungs at 5 to 15 mg/kg, ip administered every other day and measured after 14 days by hematoxylin and eosin staining-based microscopic analysis; type: organism-based; details: in vivo, 336 h, dose 5-15 mg/kg, time 14 day
[12] = tested on: HCT-116; test: Induction of apoptosis in human HCT-116 cells assessed as inhibition of caspase 3 protein expression measured for 24 hrs by Western blot analysis; type: functional, cell-based; details: dose 0-10 µM
[13] = tested on: HT-29; test: Induction of apoptosis in human HT-29 cells assessed as inhibition of caspase 8 protein expression measured for 24 hrs by Western blot analysis; type: functional, cell-based; details: dose 0-10 µM
[14] = tested on: HT-29; test: Cytotoxicity against human HT-29 cells assessed as inhibition of cell growth by SRB assay; type: functional, cell-based; details: time 24-48 hrs, TDE = time-dependent effect
[15] = tested on: HT-29; test: Induction of apoptosis in human HT-29 cells assessed as early apoptotic cells at 5 uM incubated for 24 hrs by Annexin V-FITC/PI staining based flow cytometric analysis (reference value: 4.39 %); type: functional
[16] = tested on: Mus musculus; test: as §1, with “distortion of glands” for “body weight”, “at” for “at 5 to”; type: functional, organism-based; details: time 21.0 day
[17] = tested on: Mus musculus; test: In vivo inhibition of NFkappaB activation in athymic BALB/c mouse xenografted with human HCT-116 cells assessed as reduction in MCP-1 gene expression in tumor at 15 mg/kg, ip administered every other day and measured after 14 days by qRT-PCR analysis; type: functional, organism-based; details: time 14.0 day
[18] = tested on: HT-29; test: Induction of apoptosis in human HT-29 cells assessed as early apoptotic cells at 0.5 uM incubated for 24 hrs by Annexin V-FITC/PI staining based flow cytometric analysis (reference value: 5.29 %); type: functional
[19] = Plasma clearance in Sprague-Dawley rat at 10 mg/kg, ip measured for 24 hrs by HPLC-MS/MS analysis; type: ADME, organism-based
[20] = tested on: HT-29; test: Induction of apoptosis in human HT-29 cells assessed as inhibition of PARP protein expression measured for 24 hrs by Western blot analysis; type: functional, cell-based; details: dose 0-10 µM
[21] = tested on: Mus musculus; test: In vivo inhibition of NFkappaB activation in LPS-induced BALB/c mouse model of endotoxin shock assessed as reduction in IL6 level in serum at 5 mg/kg, ip pretreated for 4 hrs followed by LPS stimulation for 1 hr by ELISA; type: functional, organism-based; details: time 5.0 hrs
[22] = tested on: HT-29; test: Induction of apoptosis in human HT-29 cells assessed as late apoptotic cells at 5 uM preincubated with Z-VAD-FMK for 1 hr followed by compound addition and measured after 24 hrs by Annexin V-FITC/PI staining based flow cytometric analysis (reference value: 7.01 %); type: functional
[23] = tested on: HCT-116; test: Induction of apoptosis in human HCT-116 cells assessed as necrotic cells at 0.25 uM incubated for 24 hrs by Annexin V-FITC/PI staining based flow cytometric analysis (reference value: 1.1 %); type: functional
[24] = tested on: HT-29; test: Induction of apoptosis in human HT-29 cells assessed as viable cells at 5 uM incubated for 24 hrs by Annexin V-FITC/PI staining based flow cytometric analysis (reference value: 93 %); type: functional; details: read-out: Activity
[25] = Plasma clearance in Sprague-Dawley rat at 10 mg/kg, iv measured for 24 hrs by HPLC-MS/MS analysis; type: ADME, organism-based
[26] = tested on: HCT-116; test: Induction of cell cycle arrest in human HCT-116 cells assessed as accumulation of cells at S phase at 5 uM by RNase/PI staining based flow cytometry analysis (reference value: 43.77 %); type: functional
[27] = tested on: HCT-116; test: Induction of autophagic flux in human HCT-116 cells assessed as increase in LC3 protein expression preincubated with chloroquine for 1 hr followed by compound addition and measured after 24 hrs by Western blot analysis; type: functional, cell-based
[28] = tested on: HCT-116; test: Cytotoxicity against human HCT-116 cells assessed as decrease in cell viability incubated for 48 hrs by SRB assay; type: functional, cell-based; details: HCT-116, 48 h
[29] = tested on: HCT-116; test: Induction of apoptosis in human HCT-116 cells assessed as inhibition of caspase 8 protein expression measured for 24 hrs by Western blot analysis; type: functional, cell-based; details: dose 0-10 µM
[30] = Toxicity in athymic nude BALB/c mouse xenografted with human HT-29 cells assessed as pathological changes in heart at 5 to 15 mg/kg, ip administered every other day and measured after 14 days by hematoxylin and eosin staining-based microscopic analysis; type: organism-based; details: in vivo, 336 h, dose 5-15 mg/kg, time 14 day
[31] = tested on: HT-29; test: Induction of apoptosis in human HT-29 cells assessed as early apoptotic cells at 5 uM incubated for 24 hrs by Annexin V-FITC/PI staining based flow cytometric analysis (reference value: 5.29 %); type: functional
[32] = tested on: HCT-116; test: Cytotoxicity against human HCT-116 cells assessed as inhibition of cell growth by SRB assay; type: functional, cell-based; details: time 24-48 hrs, TDE = time-dependent effect

T1 sequence (P19838 whole entry, looked up): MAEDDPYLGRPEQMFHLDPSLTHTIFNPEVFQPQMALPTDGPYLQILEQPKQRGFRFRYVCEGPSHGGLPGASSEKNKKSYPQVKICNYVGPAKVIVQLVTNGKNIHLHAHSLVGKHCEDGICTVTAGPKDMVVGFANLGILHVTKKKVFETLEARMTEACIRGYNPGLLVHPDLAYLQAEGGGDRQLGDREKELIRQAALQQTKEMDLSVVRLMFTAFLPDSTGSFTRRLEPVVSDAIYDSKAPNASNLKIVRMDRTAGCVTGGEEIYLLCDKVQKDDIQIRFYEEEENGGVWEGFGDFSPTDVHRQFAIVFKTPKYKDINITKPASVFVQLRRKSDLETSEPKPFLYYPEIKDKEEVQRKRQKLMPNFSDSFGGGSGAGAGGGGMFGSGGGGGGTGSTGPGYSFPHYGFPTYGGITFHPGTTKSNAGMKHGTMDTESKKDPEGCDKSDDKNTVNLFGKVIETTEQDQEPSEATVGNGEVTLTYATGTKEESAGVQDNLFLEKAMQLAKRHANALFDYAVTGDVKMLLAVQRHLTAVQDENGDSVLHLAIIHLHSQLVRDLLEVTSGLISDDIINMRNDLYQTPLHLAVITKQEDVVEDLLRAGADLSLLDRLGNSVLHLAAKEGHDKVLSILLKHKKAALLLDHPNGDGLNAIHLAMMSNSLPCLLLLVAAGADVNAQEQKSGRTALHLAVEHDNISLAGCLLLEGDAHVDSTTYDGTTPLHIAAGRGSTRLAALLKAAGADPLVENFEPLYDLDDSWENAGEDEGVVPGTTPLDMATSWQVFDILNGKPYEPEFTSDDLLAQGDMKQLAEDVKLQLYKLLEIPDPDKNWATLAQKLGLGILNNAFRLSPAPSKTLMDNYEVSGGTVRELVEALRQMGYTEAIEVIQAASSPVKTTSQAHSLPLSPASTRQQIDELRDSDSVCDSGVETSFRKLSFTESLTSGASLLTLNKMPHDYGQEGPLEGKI
T1 sequence (Q00653 whole entry, looked up): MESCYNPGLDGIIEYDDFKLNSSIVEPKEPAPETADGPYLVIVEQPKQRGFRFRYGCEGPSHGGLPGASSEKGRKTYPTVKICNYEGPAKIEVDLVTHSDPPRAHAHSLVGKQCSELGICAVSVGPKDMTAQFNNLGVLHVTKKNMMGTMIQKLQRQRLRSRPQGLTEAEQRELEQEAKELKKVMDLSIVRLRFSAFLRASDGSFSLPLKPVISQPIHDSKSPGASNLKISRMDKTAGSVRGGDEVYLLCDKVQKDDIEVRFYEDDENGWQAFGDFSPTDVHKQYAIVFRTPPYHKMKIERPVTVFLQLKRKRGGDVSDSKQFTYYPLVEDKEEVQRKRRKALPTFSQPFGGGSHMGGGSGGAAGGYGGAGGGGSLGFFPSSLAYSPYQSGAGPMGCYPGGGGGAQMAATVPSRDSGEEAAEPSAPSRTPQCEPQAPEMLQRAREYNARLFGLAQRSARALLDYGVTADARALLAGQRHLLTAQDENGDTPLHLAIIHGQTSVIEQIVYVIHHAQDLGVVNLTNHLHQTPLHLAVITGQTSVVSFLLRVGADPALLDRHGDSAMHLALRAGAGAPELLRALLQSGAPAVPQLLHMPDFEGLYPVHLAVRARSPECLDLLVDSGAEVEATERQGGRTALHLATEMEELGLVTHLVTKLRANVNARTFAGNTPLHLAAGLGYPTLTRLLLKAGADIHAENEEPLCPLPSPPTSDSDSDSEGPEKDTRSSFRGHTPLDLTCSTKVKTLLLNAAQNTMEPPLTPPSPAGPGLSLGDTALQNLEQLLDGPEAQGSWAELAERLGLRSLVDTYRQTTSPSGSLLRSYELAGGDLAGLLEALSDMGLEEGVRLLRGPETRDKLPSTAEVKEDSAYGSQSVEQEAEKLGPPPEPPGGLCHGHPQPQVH
T1 sequence (Q04206 whole entry, looked up): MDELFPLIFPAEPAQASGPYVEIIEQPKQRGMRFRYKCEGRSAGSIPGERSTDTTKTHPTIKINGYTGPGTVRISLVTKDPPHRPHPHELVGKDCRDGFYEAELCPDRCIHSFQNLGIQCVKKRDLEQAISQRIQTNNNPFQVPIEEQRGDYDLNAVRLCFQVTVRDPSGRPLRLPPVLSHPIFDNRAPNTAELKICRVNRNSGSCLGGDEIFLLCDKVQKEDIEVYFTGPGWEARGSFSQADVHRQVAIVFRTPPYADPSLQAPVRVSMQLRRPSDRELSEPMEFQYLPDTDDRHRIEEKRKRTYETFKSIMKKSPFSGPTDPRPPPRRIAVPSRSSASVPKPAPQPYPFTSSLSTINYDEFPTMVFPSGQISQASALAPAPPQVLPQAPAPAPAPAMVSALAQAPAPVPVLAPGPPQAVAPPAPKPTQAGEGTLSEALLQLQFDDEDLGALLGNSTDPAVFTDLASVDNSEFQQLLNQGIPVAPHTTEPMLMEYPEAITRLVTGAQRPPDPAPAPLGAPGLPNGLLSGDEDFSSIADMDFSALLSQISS

## C[C@@H]1CC[C@H]2[C@H](C(=O)c3c(O)c([C@@]4(O)CC[C@@H](O)[C@H]5O[C@H]54)cn(O)c3=O)[C@H](C)C=C[C@@H]2C1
[1]
  Activity: Active
[2]
  inhibition: Active
[3]
  Activity: 0.16%
[4]
  inhibition: Active
[5]
  Activity: 2.9%
[6]
  IC50: 2.8 µM
[7]
  inhibition: Active
[8]
  inhibition: Dose-Dependent Effect
[9]
  inhibition: Active
[10]
  Activity: 47%
[11]
  Activity: Non-Toxic
[12]
  Activity: Dose-Dependent Effect
[13]
  Activity: Dose-Dependent Effect
[14]
  Activity: Tde
[15]
  Activity: 28.3%
[16]
  Activity: Active
[17]
  inhibition: Active
[18]
  Activity: 37.6%
[19]
  CL/F: 27 mL/min/kg
[20]
  Activity: Dose-Dependent Effect
[21]
  inhibition: Active
[22]
  Activity: 17.2%
[23]
  Activity: 3.14%
[24]
  viability at 5 µM: 39.3%
[25]
  clearance: 4 mL/min/kg
[26]
  Activity: 40.03%
[27]
  Activity: Active
[28]
  IC50: 0.93 µM
[29]
  Activity: Dose-Dependent Effect
[30]
  Activity: Non-Toxic
[31]
  Activity: 56.4%
[32]
  Activity: Tde
